PubChem BioAssay (NCI)
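Step 1: Grow cells in 96-well plates. Step 2: Expose to compound for 48 hours at 5 concentrations. Step 3: Interpolate endpoints linearly; if unreached, use highest concentration. TGI marks complete inhibition of growth.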

Legend:
Test in all cases: DTP human tumour cell line panel, 48 h
[1] = test system: SR leukemia
[2] = test system: UO-31 renal
[3] = test system: HL-60(TB) leukemia
[4] = test system: KM20L2 colon
[5] = test system: COLO 205 colon
[6] = test system: OVCAR-4 ovarian
[7] = test system: SF-295 CNS
[8] = test system: K-562 leukemia
[9] = test system: NCI-H522 lung
[10] = test system: M19-MEL melanoma
[11] = test system: HT29 colon
[12] = test system: OVCAR-5 ovarian
[13] = test system: EKVX NSCLC
[14] = test system: SK-OV-3 ovarian
[15] = test system: HCT-116 colon
[16] = test system: RXF-631 renal
[17] = test system: HOP-92 NSCLC
[18] = test system: U251 CNS
[19] = test system: SF-268 CNS
[20] = test system: SNB-75 CNS
[21] = test system: SNB-78 CNS
[22] = test system: A549 NSCLC
[23] = test system: A498 renal
[24] = test system: DLD-1 colon
[25] = test system: KM12 colon
[26] = test system: ACHN renal
[27] = test system: RPMI-8226 leukemia
[28] = test system: NCI-H23 lung
[29] = test system: UACC-62 melanoma
[30] = test system: 786-0 renal
[31] = test system: SNB-19 CNS
[32] = test system: M14 melanoma
[33] = test system: HOP-62 NSCLC
[34] = test system: HCC-2998 colon
[35] = test system: SN12C renal
[36] = test system: NCI-H460 lung
[37] = test system: DMS 114 small cell lung
[38] = test system: DMS 273 small cell lung
[39] = test system: MOLT-4 leukemia
[40] = test system: SW-620 colon
[41] = test system: UACC-257 melanoma
[42] = test system: CCRF-CEM leukemia
[43] = test system: OVCAR-8 ovarian
[44] = test system: LOX IMVI melanoma
[45] = test system: SK-MEL-5 melanoma
[46] = test system: IGROV1 ovarian
[47] = test system: LXFL 529 NSCLC
[48] = test system: SF-539 CNS
[49] = test system: HCT-15 colon
[50] = test system: TK-10 renal
[51] = test system: RXF 393 renal
[52] = test system: NCI-H226 lung
[53] = test system: XF 498 CNS
[54] = test system: OVCAR-3 ovarian
[55] = test system: CAKI-1 renal
[56] = test system: MALME-3M melanoma
[57] = test system: BT-549 breast
[58] = test system: MDA-MB-231 breast
[59] = test system: HS 578T breast
[60] = test system: SK-MEL-2 melanoma
[61] = test system: PC-3 prostate
[62] = test system: T-47D breast
[63] = test system: SK-MEL-28 melanoma
[64] = test system: HOP-18 NSCLC
[65] = test system: DU-145 prostate
[66] = test system: MCF7 breast

In the case of `COC(=O)c1cc2c(nc1C)-c1ccccc1OS2(=O)=O`, the TGI [1] is reported as over 100 µM, the TGI [2] is reported as over 100 µM and the TGI [3] is reported as over 100 µM. The TGI [4] was over 100 µM, the TGI [5] was over 100 µM and the TGI [6] was over 100 µM. The TGI [7] was over 100 µM, the TGI [8] was over 100 µM and the TGI [9] was over 100 µM. For the same compound, the TGI [10] was over 100 µM, the TGI [11] was over 100 µM and the TGI [12] was over 100 µM. For the same compound, the TGI [13] was over 100 µM, the TGI [14] was over 100 µM and the TGI [15] was over 100 µM. It also gave a TGI [16] of over 100 µM, a TGI [17] of 83.2 µM and a TGI [18] of over 100 µM. It also gave a TGI [19] of over 100 µM, a TGI [20] of 35.3 µM and a TGI [21] of over 100 µM. It also gave a TGI [22] of over 100 µM, a TGI [23] of over 100 µM and a TGI [24] of over 100 µM. It also gave a TGI [25] of over 100 µM, a TGI [26] of over 100 µM and a TGI [27] of over 100 µM. For the same compound, the TGI [28] was over 100 µM, the TGI [29] was over 100 µM and the TGI [30] was over 100 µM. It also gave a TGI [31] of over 100 µM, a TGI [32] of over 100 µM and a TGI [33] of 67.8 µM. It also gave a TGI [34] of over 100 µM, a TGI [35] of over 100 µM and a TGI [36] of over 100 µM. For the same compound, the TGI [37] was over 100 µM, the TGI [38] was over 100 µM and the TGI [39] was over 100 µM. It also gave a TGI [40] of over 100 µM, a TGI [41] of over 100 µM and a TGI [42] of over 100 µM. The TGI [43] was over 100 µM, the TGI [44] was over 100 µM and the TGI [45] was over 100 µM. For the same compound, the TGI [46] was over 100 µM, the TGI [47] was over 100 µM and the TGI [48] was over 100 µM. The TGI [49] was over 100 µM, the TGI [50] was over 100 µM and the TGI [51] was over 100 µM. The TGI [52] was over 100 µM, the TGI [53] was over 100 µM and the TGI [54] was over 100 µM. The TGI [55] was over 100 µM and the TGI [56] was over 100 µM.

Compound `Cc1cc(Cl)ccc1Nc1nc2c(s1)C(=O)c1ccccc1C2=O` has a TGI [1] of 10.8 µM, a TGI [2] of 11.6 µM and a TGI [3] of 2.68 µM. For the same compound, the TGI [4] was 39.4 µM, the TGI [5] was 16.8 µM and the TGI [6] was 9.41 µM. The TGI [57] was 2.9 µM, the TGI [7] was 24.2 µM and the TGI [8] was over 23.3 µM. For the same compound, the TGI [9] was 4.08 µM, the TGI [10] was 2.06 µM and the TGI [11] was 54.6 µM. For the same compound, the TGI [12] was 8.61 µM, the TGI [13] was 21.4 µM and the TGI [14] was 26.1 µM. The TGI [58] was 12.9 µM, the TGI [15] was 5.25 µM and the TGI [16] was 20.2 µM. It also gave a TGI [17] of 27.2 µM, a TGI [18] of 12.7 µM and a TGI [19] of 11.3 µM. The TGI [20] was 22 µM, the TGI [21] was over 80.9 µM and the TGI [22] was 21.4 µM. It also gave a TGI [23] of 42 µM, a TGI [24] of 12.5 µM and a TGI [25] of 10.7 µM. The TGI [26] was 10.3 µM, the TGI [27] was 11.1 µM and the TGI [28] was 3.96 µM. The TGI [59] was 5.79 µM, the TGI [29] was 7.41 µM and the TGI [60] was 22.7 µM. The TGI [30] was 4.38 µM, the TGI [61] was 8.05 µM and the TGI [31] was 16.3 µM. For the same compound, the TGI [32] was 1.99 µM, the TGI [33] was 9.72 µM and the TGI [34] was 16.1 µM. For the same compound, the TGI [35] was 3.33 µM, the TGI [36] was 9.5 µM and the TGI [37] was 4.85 µM. It also gave a TGI [62] of 7.06 µM, a TGI [38] of 5.71 µM and a TGI [39] of over 25.4 µM. The TGI [40] was 4.01 µM, the TGI [41] was 5.64 µM and the TGI [42] was over 26.3 µM. For the same compound, the TGI [43] was 11.6 µM, the TGI [44] was 3.12 µM and the TGI [45] was 3.34 µM. For the same compound, the TGI [46] was 11.9 µM, the TGI [47] was 12.8 µM and the TGI [48] was 16 µM. For the same compound, the TGI [63] was 4.14 µM, the TGI [64] was 12.5 µM and the TGI [49] was 3.68 µM. For the same compound, the TGI [50] was 33.4 µM, the TGI [51] was 16.8 µM and the TGI [65] was 3.04 µM. The TGI [66] was 3.72 µM, the TGI [52] was 13.7 µM and the TGI [54] was 4.6 µM. The TGI [55] was 20.3 µM and the TGI [56] was 2.92 µM.
